Residues, ends and D or L forms follow the SMILES beside them. *: point of attachment. Cbz = O=C(OCc1ccccc1)*
What follows are compounds tested on ubiquitin-proteasome (assay: Quantification of GFP-RPN1 fusion protein accumulated by proteasome inhibitor (dual LIF CE system)). Details: HEK 293T cells transfected with EGFP-RPN1 and DsRed plasmid vectors; about 0 to about 20 μM inhibitor, two hours; GFP-RPN1 peak height by CE-dual LIF; FIGS. 5a to 5c.
Format: cell-based, human
Description: To monitor a ubiquitin-proteasome-dependent protein RPN1 (ribophorin I), a plasmid vector enabling to express a fusion protein including a green fluorescent protein (GFP) and RPN1 was prepared. Specifically, to induce rapid lysis of a human RPN1 protein, a wild type RPN1 polynucleotide (SEQ ID NO: 2) encoding a wild type human RPN1 protein (SEQ ID NO: 1) was used to prepare a mutant RPN-I^N299T polynucleotide (SEQ ID NO: 4) encoding a mutant RPN-I^N299T protein (SEQ ID NO: 3). The mutant RPN-I^N299T polynucleotide (SEQ ID NO: 4) was cloned into a pEGFP-C1 plasmid vector (Clontech Laboratories Inc.) to prepare a pEGFP-RPN1^N299T plasmid which enables expression of a fusion protein including a GFP protein and the RPN1^N299T protein.
On the other hand, a plasmid vector expressing a red fluorescent protein (RFP) as a ubiquitin-proteasome-independent protein which is not lysed by a ubiquitin-proteasome was prepared. Specifically, a pDs-Red2-Express-N1 plasmid vector (Clontech Laboratories Inc.) which enables expression of a Discosoma species RFP (DsRed) was prepared.
As host cells, human embryonic kidney (HEK) 293T cells were cultured in a DMEM (Dulbecco's Modified Eagle's Medium) (Gibco/BRL) including 10% (v/v) fetal bovine serum (FBS) and 1% (v/v) penicillin-streptomycin (Gibco/BRL) at a temperature of 37° C. under the atmosphere of 5% CO2. During the culturing, the medium was replaced with new medium every second day. […]
Subsequently, the supernatant which was the cell lysate was obtained as described in Example 1.2. As described in Example 1.3, a capillary electrophoresis was performed with the obtained supernatant under the electrophoresis conditions of 100 mM Tris-CHES and 10 mM SDS (pH 9.0) by using a dual LIF CE system including an uncoated capillary having an inner diameter of 75 μm and a length of 50 cm to quantify the peak height. […]
For `CC(C)C[C@@H](C=O)NC(=O)[C@H](CC(C)C)NC(=O)[C@H](CC(C)C)NC(=O)OCc1ccccc1` [MG132] (Cbz-Leu-Leu-Leu-aldehyde), the “amount of the accumulated proteins (relative intensity of the peaks)” value (“amount … (relative intensity of the peaks)” below) was “varied according to the increase of the concentrations”. `CC(C)C[C@H](NC(=O)[C@H](Cc1ccccc1)NC(=O)c1cnccn1)B(O)O` [bortezomib] was tested, and the “amount … (relative intensity of the peaks)” value was “varied according to the increase of the concentrations”. With `CC(C)C[C@H](NC(=O)[C@H](CCc1ccccc1)NC(=O)CN1CCOCC1)C(=O)N[C@@H](Cc1ccccc1)C(=O)N[C@@H](CC(C)C)C(=O)[C@@]1(C)CO1` [carfilzomib] the “amount … (relative intensity of the peaks)” value was “varied according to the increase of the concentrations”.

— patent publication US9766247B2, “Rapid method to analyze ubiquitin-proteasome activity and to screen for ubiquitin-proteasome inhibitor” (KOREA INSTITUTE OF SCIENCE AND TECHNOLOGY, priority 2014, dated 2017)
